These results are taken from patent EP0103381B1, “Substituted anthra(1,9-cd)pyrazol-6(2H)-ones” (WARNER-LAMBERT COMPANY, priority 1982, dated 1984).

In assay [1] the test system is Aerobacter aerogenes. Briefly: agar plate paper-disc inhibition zone screening. The class given is cell-based. As to conditions: Klebsiella aerogenes, read-out: Inhibition Zone Diameter mm (Dose mg/ml) A. Aerogenes; for zone of inhibition at 500 µg/mL: Dose 0.5 mg/ml; for zone of inhibition at 3000 µg/mL: Dose 3.0 mg/ml. The essentials:
(§1)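 Read-out: diameter (mm) of the inhibition zone around 12.7 mm paper discs after overnight (18-20 h) incubation at 37°C. Discs carried compound at 3,000-10 mcg/ml in alcohol, DMSO or DMF, final solvent <10%. Seeded agar trays used saline-suspended cells adjusted to 20-35% transmittancy.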

Assay [2] deals with Streptococcus faecalis. As to the kind of experiment: agar plate paper-disc inhibition zone screening. The class given is cell-based. As to conditions: Enterococcus faecalis, read-out: Inhibition Zone Diameter mm (Dose mg/ml) S. Faecalis; for zone of inhibition at 3000 µg/mL: Dose 3.0 mg/ml. A digest of the protocol:
as §1

The subject of assay [3] is Escherichia coli. Briefly: agar plate paper-disc inhibition zone screening. In kind it is cell-based. The note with it: read-out: Inhibition Zone Diameter mm (Dose mg/ml) E. Coli; for zone of inhibition at 500 µg/mL: Dose 0.5 mg/ml; for zone of inhibition at 3000 µg/mL: Dose 3.0 mg/ml. The essentials: as §1
Assay [4] deals with Bacillus subtilis. As to the kind of experiment: agar plate paper-disc inhibition zone screening. The class given is cell-based. The note with it: read-out: Inhibition Zone Diameter mm (Dose mg/ml) B. Subtilis; for zone of inhibition at 3000 µg/mL: Dose 3.0 mg/ml; for zone of inhibition at 1000 µg/mL: Dose 1.0 mg/ml. The essentials: as §1
Assay [5] deals with Penicillium avellaneum. Briefly: agar plate paper-disc inhibition zone screening. In kind it is cell-based. The note with it: Hamigera avellanea; Dose 3.0 mg/ml; read-out: Inhibition Zone Diameter mm (Dose mg/ml) P. Avellaneum. The essentials: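 Mycelia and spores from a six-day 28°C agar culture, suspended in saline with 0.05% Tween 80 at 20% transmittancy, were seeded into molten agar trays. Compounds at 3,000, 1,000, 500, 100 and 10 mcg/ml (solvent <10%) were applied on 12.7 mm paper discs. After at least 20-24 h incubation, inhibition zone diameter was measured in mm.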

Assay [6] has as its system lymphocytic leukemia P388. As to the kind of experiment: in vivo lymphocytic leukemia P388 test. Set-up: species or system mice. As to conditions: Mus musculus, P388, ip, 720 h, two single doses four days apart, read-out: T/C × 100 (Percent); for response vs control in vivo at 1.56 mg/kg: P388, Dose 1.56 mg/kg intraperitoneally; for response vs control in vivo at 3.12 mg/kg: P388, Dose 3.12 mg/kg intraperitoneally; for response vs control in vivo at 6.25 mg/kg: P388, Dose 6.25 mg/kg intraperitoneally; for response vs control in vivo at 12.5 mg/kg: P388, Dose 12.5 mg/kg intraperitoneally; for response vs control in vivo at 25 mg/kg: P388, Dose 25 mg/kg intraperitoneally; for response vs control in vivo at 50 mg/kg: P388, Dose 50 mg/kg intraperitoneally; for response vs control in vivo at 100 mg/kg: P388, Dose 100 mg/kg intraperitoneally; for response vs control in vivo at 0.39 mg/kg: P388, Dose 0.39 mg/kg intraperitoneally; for response vs control in vivo at 0.78 mg/kg: P388, Dose 0.78 mg/kg intraperitoneally. The essentials:
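CD2F mice (6–7 per group) were inoculated intraperitoneally with P388 leukemia ascitic cells. Compounds were then given i.p. as two doses four days apart at various levels. Survival over 30 days was expressed as treated/control time ratio, efficacy criterion T/C×100 >125%.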

The structures appear in SMILES notation.

Consider `CCN(CC)CCNc1ccc2c3c(nn2CCNCCO)-c2c(O)ccc(O)c2C(=O)c13` [Example 57, 5-[[2-(Diethylamino)ethyl]amino]-7,10-dihydroxy-2-[2-[(2-hydroxyethyl)amino]ethyl]anthra[1,9-cd]pyrazol-6(2H)-one], for which the zone of inhibition at 500 µg/mL in assay [1] stood at 14 mm. For the same compound, in assay [2] (Dose 1.0 mg/ml), the zone of inhibition at 1000 µg/mL came out at 14 mm. Further, in assay [3], the zone of inhibition at 500 µg/mL was found to be 14 mm. Also, the zone of inhibition at 500 µg/mL in assay [4] (Dose 0.5 mg/ml) was 15 mm. In addition, the zone of inhibition at 3000 µg/mL in assay [5] is 14 mm. In addition, in assay [6], the response vs control in vivo at 1.56 mg/kg came to 131%, the response vs control in vivo at 3.12 mg/kg is 148%, the response vs control in vivo at 6.25 mg/kg was found to be 154% and the response vs control in vivo at 12.5 mg/kg turned out to be 177%. Moreover, in assay [6], the response vs control in vivo at 25 mg/kg came out at 190% and the response vs control in vivo at 50 mg/kg was found to be 241%.
In the case of `CN(C)CCNc1ccc2c3c(nn2CCO)-c2c(O)ccc(O)c2C(=O)c13` [Example 39], the zone of inhibition at 500 µg/mL in assay [1] amounted to 15 mm. Besides, in assay [2], the zone of inhibition at 3000 µg/mL was 14 mm. Further, the zone of inhibition at 3000 µg/mL in assay [3] was 0 mm. The zone of inhibition at 3000 µg/mL in assay [4] turned out to be 0 mm. Besides, the zone of inhibition at 3000 µg/mL in assay [5] came out at 0 mm. In assay [6], the response vs control in vivo at 12.5 mg/kg was 124%, the response vs control in vivo at 25 mg/kg stood at 153%, the response vs control in vivo at 50 mg/kg is 180% and the response vs control in vivo at 100 mg/kg worked out at 225%.
As for `CCN(CC)CCn1nc2c3c(c(NCCNC)ccc31)C(=O)c1c(O)ccc(O)c1-2` [Example 31, 2-[2-(Diethylamino)ethyl]-7,10-dihydroxy-5-[[2-(methylamino)ethyl]amino]anthra[1,9-cd]pyrazol-6(2H)-one], in assay [1], the zone of inhibition at 500 µg/mL turned out to be 16 mm. Besides, the zone of inhibition at 3000 µg/mL in assay [2] worked out at 14 mm. Also, the zone of inhibition at 500 µg/mL in assay [3] turned out to be 16 mm. In addition, the zone of inhibition at 1000 µg/mL in assay [4] stood at 17 mm. Also, in assay [5], the zone of inhibition at 3000 µg/mL turned out to be 0 mm. In assay [6], the response vs control in vivo at 3.12 mg/kg was found to be 154%, the response vs control in vivo at 6.25 mg/kg is 163%, the response vs control in vivo at 12.5 mg/kg is 191% and the response vs control in vivo at 25 mg/kg worked out at 219%. In addition, in assay [6], the response vs control in vivo at 50 mg/kg stood at 172%.
For `NCCNc1ccc2c3c(nn2CCNCCO)-c2c(O)ccc(O)c2C(=O)c13` [Example 55, 5-[(2-Aminoethyl)amino]-7,10-dihydroxy-2-[2-[(2-hydroxyethyl)amino]ethyl]anthra[1,9-cd]pyrazol-6(2H)-one], the zone of inhibition at 3000 µg/mL in assay [1] amounted to 15 mm; in assay [2] it was 0 mm; in assay [4], 14 mm; in assay [5] it was 0 mm. Moreover, the zone of inhibition at 1000 µg/mL in assay [3] (Dose 1.0 mg/ml) came to 14 mm. The response vs control in vivo at 0.39 mg/kg in assay [6] came to 175%. Moreover, the response vs control in vivo at 0.78 mg/kg in assay [6] turned out to be 182%. In assay [6], the response vs control in vivo at 1.56 mg/kg was found to be 173%.
On to `CCN(CC)CCn1nc2c3c(c(NCCNCCO)ccc31)C(=O)c1ccccc1-2` [Example 2], for which the zone of inhibition at 500 µg/mL in assay [1] is 18 mm. The zone of inhibition at 500 µg/mL in assay [2] (Dose 0.5 mg/ml) was determined as 15 mm. The zone of inhibition at 100 µg/mL in assay [3] (Dose 0.1 mg/ml) came out at 14 mm. Besides, the zone of inhibition at 100 µg/mL in assay [4] (Dose 0.1 mg/ml) amounted to 16 mm. For the same compound, the zone of inhibition at 3000 µg/mL in assay [5] amounted to 0 mm. Further, in assay [6], the response vs control in vivo at 0.78 mg/kg was found to be 135%, the response vs control in vivo at 1.56 mg/kg is 142% and the response vs control in vivo at 25 mg/kg was determined as 197%.
Turning to `CCN(CC)CC(O)Cn1nc2c3c(c(NCCN)ccc31)C(=O)c1c(O)ccc(O)c1-2` (stereo not shown) [Example 45, 5-[(2-Aminoethyl)amino]-2-[3-(diethylamino)-2-hydroxypropyl]-7,10-dihydroxyanthra[1,9-cd]pyrazol-6(2H)-one], the zone of inhibition at 500 µg/mL in assay [1] and in assay [3] was 15 mm in each case. The zone of inhibition at 3000 µg/mL in assay [2] amounted to 0 mm; in assay [4], 14 mm; in assay [5], 0 mm. The response vs control in vivo at 0.39 mg/kg in assay [6] came to 135%. In assay [6], the response vs control in vivo at 1.56 mg/kg was 157%.
Regarding `NCCCCNc1ccc2c3c(nn2CCNCCO)-c2c(O)ccc(O)c2C(=O)c13` [Example 59, 5-[(4-Aminobutyl)amino]-7,10-dihydroxy-2-[2-[(2-hydroxyethyl)amino]ethyl]anthra[1,9-cd]pyrazol-6(2H)-one], the zone of inhibition at 3000 µg/mL in assay [1] was 16 mm; in assay [2], 0 mm; in assay [3], 15 mm; in assay [4], 0 mm; in assay [5] it was 0 mm. In addition, the response vs control in vivo at 3.12 mg/kg in assay [6] came out at 130%. For the same compound, the response vs control in vivo at 6.25 mg/kg in assay [6] was found to be 131%. In addition, in assay [6], the response vs control in vivo at 12.5 mg/kg came out at 139%. Also, the response vs control in vivo at 25 mg/kg in assay [6] worked out at 150%. In assay [6], the response vs control in vivo at 100 mg/kg was 172%.
`O=C1c2c(O)ccc(O)c2-c2nn(CCNCCO)c3ccc(NCCCNCCO)c1c23` [Example 62, 7,10-Dihydroxy-2-[2-[(2-hydroxyethyl)amino]ethyl]-5-[[3-[(2-hydroxyethyt)amino]propyl]amino]anthra[1,9-cd] pyrazol-6(2H)-one]: the zone of inhibition at 500 µg/mL in assay [1] and in assay [3] was 14 mm in each case. The results for the zone of inhibition at 3000 µg/mL in assay [2] and in assay [5] were 14 mm and 0 mm, respectively. Further, in assay [4], the zone of inhibition at 1000 µg/mL was 16 mm. In addition, the response vs control in vivo at 3.12 mg/kg in assay [6] stood at 173%.
Consider `NCCNc1ccc2c3c(nn2CCO)-c2c(O)ccc(O)c2C(=O)c13` [Example 37, 5-[(2-Aminoethyl)amino]-7,10-dihydroxy-2-(2-hydroxyethyl)anthra[1,9-cd]pyrazol-6(2H)-one], for which the zone of inhibition at 1000 µg/mL in assay [1] (Dose 1.0 mg/ml) came out at 15 mm. Moreover, in assay [2], the zone of inhibition at 3000 µg/mL was 0 mm. Moreover, in assay [3], the zone of inhibition at 3000 µg/mL was found to be 0 mm. In assay [4], the zone of inhibition at 1000 µg/mL is 15 mm. In addition, the zone of inhibition at 3000 µg/mL in assay [5] was 0 mm. Further, in assay [6], the response vs control in vivo at 6.25 mg/kg stood at 135%, the response vs control in vivo at 12.5 mg/kg was determined as 145%, the response vs control in vivo at 25 mg/kg amounted to 146% and the response vs control in vivo at 50 mg/kg was 162%.
In the case of `CCN(CC)CC(O)Cn1nc2c3c(c(NCCNCCO)ccc31)C(=O)c1c(O)ccc(O)c1-2` (stereo not shown) [Example 43, 2-[3-(Diethylamino)-2-hydroxypropyl]-7,10-dihydroxy-5-[[2-[(2-hydroxyethyl)amino]ethyl]amino]-anthra[1,9-cd]pyrazol-6(2H)-one], the zone of inhibition at 500 µg/mL in assay [1] and in assay [3] was 16 mm each time. The zone of inhibition at 3000 µg/mL in assay [2] was determined as 15 mm; in assay [4], 14 mm; in assay [5], 0 mm. The response vs control in vivo at 0.78 mg/kg in assay [6] was determined as 132%. Moreover, the response vs control in vivo at 1.56 mg/kg in assay [6] came to 139%.
